This note sets out measurements from patent publication US20120165339A1, “CYCLOPROPANE DERIVATIVES” (EISAI R&D MANAGEMENT CO., LTD., priority 2010, published 2012).

One assay relates to mice (C57BL/6NCrlCrLj). In words: Sleep experiment (EEG/EMG) in mice. Type of assay: in vivo. As to conditions: oral administration, accumulated sleep over 3 hours, difference to vehicle-administration day. The protocol:
As a method for measuring the influence of the present compound on sleep time, electroencephalogram (EEG) and electromyogram (EMG) measurements were carried out in mice (C57BL/6NCrlCrLj).
In order to measure brain waves and muscle signals, EEG and EMG electrode implantation was performed on individual mice, and the mice were then housed in a state in which they could freely move and habituate in individual recording cages for 1 week or longer. Thereafter, amplified EEG and EMG signals were digitally recorded.
Mice received either oral administration of vehicle or test compound in vehicle, after which sleep/wake behavior of mice was recorded for 3 hours.
For sleep analysis, automatic analysis software from Kissei Comtec Co., Ltd. was used to analyze EEG frequency and EMG activity signals in detail and to determine sleep and wake states. Thereafter, accumulated sleeping time over 3 hours was calculated.
The effect of the compound to increase sleep time was evaluated as the difference between sleeping time on the vehicle-administration day and the sleep time on the subsequent drug-administration day.

Assay [1] concerns the target T1, OX2 (Homo sapiens, UniProt O43614).
T1 sequence (O43614 1-444): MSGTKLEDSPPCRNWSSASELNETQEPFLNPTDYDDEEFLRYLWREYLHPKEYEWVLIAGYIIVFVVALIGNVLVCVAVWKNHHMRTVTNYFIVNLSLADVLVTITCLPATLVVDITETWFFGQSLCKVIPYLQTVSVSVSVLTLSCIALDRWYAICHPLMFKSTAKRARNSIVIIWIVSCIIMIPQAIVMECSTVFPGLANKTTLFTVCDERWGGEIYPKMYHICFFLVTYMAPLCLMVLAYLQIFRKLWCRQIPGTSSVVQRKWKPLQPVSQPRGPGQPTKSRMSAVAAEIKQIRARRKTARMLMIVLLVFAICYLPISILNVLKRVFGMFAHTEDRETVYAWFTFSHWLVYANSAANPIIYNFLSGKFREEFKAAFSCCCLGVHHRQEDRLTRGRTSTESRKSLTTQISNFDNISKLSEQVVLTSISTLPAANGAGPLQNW
In words: Orexin-receptor binding ability, [125I]-OX-A, CHO cell membranes expressing OX2. On the set-up: expressed in transfected cells; host or cells: CHO cells (membrane preparation). As to conditions: membranes of recombinant CHO cells, 0.2 nM [125I]-OX-A tracer; read-out: OX2 (IC50). In outline:
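Competition binding used membranes from recombinant CHO cells (5 μg protein/assay) with 0.2 nM [125I]-OX-A tracer and varied compound concentrations. Incubation was 30 min at room temperature in 25 mM HEPES pH 7.5 with CaCl2, MgCl2, 0.5% BSA, 0.05% Tween-20 and 0.2% DMSO. Bound radioactivity was counted by scintillation after one wash, giving IC50 (nM).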

The target of assay [2] is T1, OX2. In words: Antagonism PLAP reporter assay, HEK-293 cells expressing human OX2. As to conditions: HEK-293, 1 nM human OX-A; IC50 converted to Ki by Cheng-Prusoff equation. Type of assay: cell-based. The arrangement: expressed in transfected cells; host or cells: HEK-293 cell line, expression vector pBabeCLIH. In outline:
(§1)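 HEK-293 cells expressing human OX1 or OX2 preincubated 1 h at room temperature with compound, then stimulated with 1 nM orexin-A plus 300 nM forskolin for about 18-24 h at 37 °C. Secreted PLAP read by luminescence; IC50 converted to Ki via Cheng-Prusoff using measured OX-A Kd.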
A general note: A reporter such as luciferase makes a cellular process visible.

The target in assay [3] is T2, OX1 (Homo sapiens, UniProt O43613).
T2 sequence (O43613 1-425): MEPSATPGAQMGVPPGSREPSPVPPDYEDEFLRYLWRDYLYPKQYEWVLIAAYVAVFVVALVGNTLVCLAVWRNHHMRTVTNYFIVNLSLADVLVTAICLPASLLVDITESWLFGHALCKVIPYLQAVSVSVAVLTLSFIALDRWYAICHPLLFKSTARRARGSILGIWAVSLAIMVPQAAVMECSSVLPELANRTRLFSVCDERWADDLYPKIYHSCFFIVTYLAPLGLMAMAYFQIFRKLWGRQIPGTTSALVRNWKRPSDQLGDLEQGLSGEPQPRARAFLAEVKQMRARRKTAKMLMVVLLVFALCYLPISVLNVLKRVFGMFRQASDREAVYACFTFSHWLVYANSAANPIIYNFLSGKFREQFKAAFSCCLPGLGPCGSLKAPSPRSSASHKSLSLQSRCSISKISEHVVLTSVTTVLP
The assay can be described thus: Antagonism PLAP reporter assay, HEK-293 cells expressing human OX1. Type of assay: cell-based. The arrangement: expressed in transfected cells; host or cells: HEK-293 cell line, expression vector pBabeCLIH. Conditions: HEK-293, 1 nM human OX-A; IC50 converted to Ki by Cheng-Prusoff equation. The procedure, abridged: as §1

Assay [4] concerns the target T2, OX1. The assay can be described thus: Orexin-receptor binding ability, [125I]-OX-A, CHO cell membranes expressing OX1. The arrangement: expressed in transfected cells; host or cells: CHO cells (membrane preparation). As to conditions: membranes of recombinant CHO cells, 0.2 nM [125I]-OX-A tracer; read-out: OX1 (IC50). In outline:
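Buffer was 25 mM HEPES pH 7.5, 1 mM CaCl2, 4.5 mM MgCl2, 0.5% BSA, 0.1% sodium azide, 0.05% Tween-20 and 0.2% DMSO. Bound radioactivity was counted by scintillation, and IC50 values were reported.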

A word on the IC50: it is the concentration that gives 50% inhibition. The Ki is a dissociation constant, usually derived from enzyme kinetics or from competition with a known ligand. Consider `COc1ccc(OC[C@@]2(c3ccccc3)C[C@H]2C(=O)Nc2ccc(C#N)cn2)cc1OC` [Example 4, (1R,2S)—N-(5-cyanopyridin-2-yl)-2-[(3,4-dimethoxyphenyl)oxymethyl]-2-phenylcyclopropanecarboxamide], for which the “Sleep extended time (min/3 hrs)” value in the assay with mice (C57BL/6NCrlCrLj) turned out to be 57 min/3 hrs. The IC50 at OX2 [1] stood at 0.013 µM; on OX1 [4] it was 0.129 µM. Besides, the inhibitory constant (Ki) on OX2 [2] came to 0.0051 µM; on OX1 [3], 0.0652 µM.

With `Cc1nc(C(F)(F)F)nn1CC[C@@]1(c2ccccc2)C[C@H]1C(=O)Nc1ccc(F)cn1` [Example 121], the “Sleep extended time (min/3 hrs)” value in the assay with mice (C57BL/6NCrlCrLj) was 21.3 min/3 hrs. The IC50 at OX2 [1] worked out at 0.019 µM; on OX1 [4], 0.166 µM. Besides, the Ki at OX2 [2] is 0.0314 µM; at OX1 [3], 0.406 µM.

As for `Cc1nc(C(F)(F)F)nn1CC[C@@]1(c2ccccc2)C[C@H]1C(=O)Nc1ccc(Cl)cn1` [Example 122], the “Sleep extended time (min/3 hrs)” value in the assay on mice (C57BL/6NCrlCrLj) stood at 21.8 min/3 hrs. In addition, the figures for the IC50 on OX2 [1] and at OX1 [4] were 0.003 µM and 0.098 µM, respectively. Also, the Ki at OX2 [2] worked out at 0.01 µM; at OX1 [3], 0.14 µM.
